Patent publication US20240400555A1 (Initial Therapeutics, Inc., priority 2023, published 2024)
Like-named read-outs stand apart in the source and are kept apart here.

System: MV-4-11 cells
Experiment: Cell Viability Assay in MV-4-11 Cells
Type: cell-based
Conditions: Homo sapiens, MV4-11, 72 h
Summary of the method: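 MV-4-11 cells at 7,000/well in IMDM with 10% FBS, exposed to compound for 72 h. Viability by CellTiter-Glo luminescence, normalized to DMSO as 100%, fitted with a four-parameter curve.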

[1] = MV-4-11 cells, 72 h, Cell-Titer Glo, read-out: IC50

Structure (SMILES)	IC50 [1]	IC50
CCc1csc2ccnc(N(C(=O)c3ccc(-c4nnc(C)s4)cc3F)[C@@H]3CCCNC3)c12 [Example 617, (R)—N-(3-ethylthieno[3,2-c]pyridin-4-yl)-2-fluoro-4-(5-methyl-1,3,4-thiadiazol-2-yl)-N-(piperidin-3-yl)benzamide]	540 nM	
Cc1cc(Cl)cc2ccnc(N(C(=O)c3ccc(-c4nnn(C)c4CO)cc3F)[C@@H]3CCCNC3)c12 [Example 618, (R)—N-(6-chloro-8-methylisoquinolin-1-yl)-2-fluoro-4-(5-(hydroxymethyl)-1-methyl-1H-1,2,3-triazol-4-yl)-N-(piperidin-3-yl)benzamide]	53 nM	
COc1cc(C)c2c(N(C(=O)c3ccc(-c4cn(C)nn4)cc3F)[C@@H]3CCCNC3)nccc2c1 [Example 619, (R)-2-fluoro-N-(6-methoxy-8-methylisoquinolin-1-yl)-4-(1-methyl-1H-1,2,3-triazol-4-yl)-N-(piperidin-3-yl)benzamide]	38 nM	
Cc1cc(F)cc2ccnc(N(C(=O)c3ccc(-c4cn(C)nn4)cc3F)[C@H]3CCCNC3)c12 [Example 620, 2-fluoro-N-(6-fluoro-8-methyl-1-isoquinolyl)-4-(1-methyltriazol-4-yl)-N-[(3S)-3-piperidyl]benzamide]	> 5900 nM	
Cc1cc(Cl)cc2ccnc(N(C(=O)c3ccc(-c4cn(C)nn4)cc3F)[C@H]3CCCNC3)c12 [Example 621, (S)—N-(6-chloro-8-methylisoquinolin-1-yl)-2-fluoro-4-(1-methyl-1H-1,2,3-triazol-4-yl)-N-(piperidin-3-yl)benzamide]	4100 nM	
Cc1nnc(-c2ccc(C(=O)N(c3nccc4cccc(C)c34)[C@@H]3CCCNC3)cn2)s1 [Example 622, (R)-6-(5-methyl-1,3,4-thiadiazol-2-yl)-N-(8-methylisoquinolin-1-yl)-N-(piperidin-3-yl)nicotinamide]	170 nM	
Cc1cccc2ccnc(N(C(=O)c3ccc(Nc4nccc(N5CCC[C@@H](O)C5)n4)cc3F)[C@@H]3CCCNC3)c12 [Example 623, 2-fluoro-4-((4-((R)-3-hydroxypiperidin-1-yl)pyrimidin-2-yl)amino)-N-(8-methylisoquinolin-1-yl)-N—((R)-piperidin-3-yl)benzamide]	30 nM	
Cc1cccc2ccnc(N(C(=O)c3ccc(Nc4nccc(N5CCC[C@H](O)C5)n4)cc3F)[C@@H]3CCCNC3)c12 [Example 624, 2-fluoro-4-((4-((S)-3-hydroxypiperidin-1-yl)pyrimidin-2-yl)amino)-N-(8-methylisoquinolin-1-yl)-N—((R)-piperidin-3-yl)benzamide]	180 nM	
Cc1cccc2ccnc(N(C(=O)c3ccc(Nc4nccc(N5CC[C@H](O)C5)n4)cc3F)[C@@H]3CCCNC3)c12 [Example 625, 2-fluoro-4-((4-((S)-3-hydroxypyrrolidin-1-yl)pyrimidin-2-yl)amino)-N-(8-methylisoquinolin-1-yl)-N—((R)-piperidin-3-yl)benzamide]	20 nM	
Cc1ccc(F)c2ccnc(N(C(=O)c3ccc(-c4cnn5cccnc45)cc3F)[C@@H]3CCCNC3)c12 [Example 626, (R)-2-fluoro-N-(5-fluoro-8-methylisoquinolin-1-yl)-N-(piperidin-3-yl)-4-(pyrazolo[1,5-a]pyrimidin-3-yl)benzamide]	110 nM	
Cc1cc(F)cc2ccnc(N(C(=O)c3ccc(-c4cnn5cccnc45)cc3F)[C@@H]3CCCNC3)c12 [Example 627, (R)-2-fluoro-N-(6-fluoro-8-methylisoquinolin-1-yl)-N-(piperidin-3-yl)-4-(pyrazolo[1,5-a]pyrimidin-3-yl)benzamide]	160 nM	
Cc1nnc(-c2ccc(C(=O)N(c3nccc4cccc(C)c34)[C@@H]3CCCNC3)c(C)c2)s1 [Example 628, (R)-2-methyl-4-(5-methyl-1,3,4-thiadiazol-2-yl)-N-(8-methylisoquinolin-1-yl)-N-(piperidin-3-yl)benzamide]	630 nM	
Cc1nnc(-c2ccc(C(=O)N(c3nccc4scc(C)c34)[C@@H]3CCCNC3)cn2)s1 [Example 629, 6-(5-methyl-1,3,4-thiadiazol-2-yl)-N-(3-methylthieno[3,2-c]pyridin-4-yl)-N-[(3R)-3-piperidyl]pyridine-3-carboxamide]	160 nM	
COCc1cn(-c2ccc(C(=O)N(c3nccc4scc(C)c34)[C@@H]3CCCNC3)cc2)nn1 [Example 630, (R)-4-(4-(methoxymethyl)-1H-1,2,3-triazol-1-yl)-N-(3-methylthieno[3,2-c]pyridin-4-yl)-N-(piperidin-3-yl)benzamide]	160 nM	
COCc1cn(-c2ccc(C(=O)N(c3nccc4cc(Cl)cc(C)c34)[C@@H]3CCCNC3)cn2)nn1 [Example 631, (R)—N-(6-chloro-8-methylisoquinolin-1-yl)-6-(4-(methoxymethyl)-1H-1,2,3-triazol-1-yl)-N-(piperidin-3-yl)nicotinamide]	100 nM	
COCc1cn(-c2ccc(C(=O)N(c3nccc4cc(Cl)cc(C)c34)[C@@H]3CCCNC3)nc2)nn1 [Example 632, (R)—N-(6-chloro-8-methylisoquinolin-1-yl)-5-(4-(methoxymethyl)-1H-1,2,3-triazol-1-yl)-N-(piperidin-3-yl)picolinamide]	190 nM	
COCCc1nnc(-c2ccc(C(=O)N(c3nccc4scc(C)c34)[C@@H]3CCCNC3)cc2)s1 [Example 633, (R)-4-(5-(2-methoxyethyl)-1,3,4-thiadiazol-2-yl)-N-(3-methylthieno[3,2-c]pyridin-4-yl)-N-(piperidin-3-yl)benzamide]	31 nM	
COCCc1nnc(-c2ccc(C(=O)N(c3nccc4scc(C)c34)[C@@H]3CCCNC3)c(F)c2)s1 [Example 634, (R)-2-fluoro-4-(5-(2-methoxyethyl)-1,3,4-thiadiazol-2-yl)-N-(3-methylthieno[3,2-c]pyridin-4-yl)-N-(piperidin-3-yl)benzamide]	140 nM	
Cc1csc2ccnc(N(C(=O)c3ccc(-c4nnn5c4COCC5)cc3F)[C@@H]3CCCNC3)c12 [Example 635, (R)-4-(6,7-dihydro-4H-[1,2,3]triazolo[5,1-c][1,4]oxazin-3-yl)-2-fluoro-N-(3-methylthieno[3,2-c]pyridin-4-yl)-N-(piperidin-3-yl)benzamide]		100 nM
COCCc1c(-c2ccc(C(=O)N(c3nccc4cc(Cl)cc(C)c34)[C@@H]3CCCNC3)c(F)c2)nnn1C [Example 636, (R)—N-(6-chloro-8-methylisoquinolin-1-yl)-2-fluoro-4-(5-(2-methoxyethyl)-1-methyl-1H-1,2,3-triazol-4-yl)-N-(piperidin-3-yl)benzamide]	100 nM	
COCc1c(-c2ccc(C(=O)N(c3nccc4cc(Cl)cc(C)c34)[C@@H]3CCCNC3)c(F)c2)nnn1C [Example 637, (R)—N-(6-chloro-8-methylisoquinolin-1-yl)-2-fluoro-4-(5-(methoxymethyl)-1-methyl-1H-1,2,3-triazol-4-yl)-N-(piperidin-3-yl)benzamide]	250 nM	
COCCn1cc(-c2ccc(C(=O)N(c3nccc4scc(C)c34)[C@@H]3CCCNC3)cn2)nn1 [Example 638, (R)-6-(1-(2-methoxyethyl)-1H-1,2,3-triazol-4-yl)-N-(3-methylthieno[3,2-c]pyridin-4-yl)-N-(piperidin-3-yl)nicotinamide]	47 nM	
COCCn1cc(-c2ccc(C(=O)N(c3nccc4scc(C)c34)[C@@H]3CCCNC3)cc2)nn1 [Example 639, (R)-4-(1-(2-methoxyethyl)-1H-1,2,3-triazol-4-yl)-N-(3-methylthieno[3,2-c]pyridin-4-yl)-N-(piperidin-3-yl)benzamide]	150 nM	
